Here are results for three compounds from PMC11273431, “Isolation, Characterization, and Functional Properties of Antioxidant Peptides from Mulberry Leaf Enzymatic Hydrolysates” (Antioxidants, 2024).

Assay type in all cases: cell-based
In data set [1] the test system is HepG2 cells. Put plainly: Cell viability, CCK-8. The settings on record: 160 μM H2O2, 24 h. Here is the method: HepG2 cells were cultured in a complete medium (90% DMEM + 10% FBS + 100 units/mL penicillin and 100 μg/mL streptomycin) at 37 °C, 5% CO2, and 90% relative humidity. The Cell Counting Kit-8 (CCK-8) Assay Kit was used to detect the effect of H2O2 and peptides on cell viability. HepG2 cells (1 × 10^5 cells/mL) were pre-seeded in a 96-well culture plate overnight and then treated with H2O2 and peptides at 37 °C for 24 h. Cell viability was assessed with the CCK-8 kit (Item No. BS350C) according to the protocol supplied by the manufacturer.

Data set [2] has as its system HepG2 cells. Put plainly: Protective effect against H2O2-induced oxidative damage, CCK-8. The settings on record: peptide 100 μg/mL pretreatment 6 h, then H2O2 160 μM 24 h. The procedure: We first established a H2O2-induced oxidative damage model in HepG2 cells. HepG2 cells (1 × 10^5 cells/mL) in a volume of 100 μL were seeded in a 96-well culture plate and incubated at 37 °C for 24 h. The control group and damage group received 100 μL of DMEM, the positive control group received 100 μL of 100 μg/mL Trolox, and the experimental group received 100 μL of DMEM containing different concentrations of peptides.
After culturing for another 6 h, the experimental and damage groups were exposed to H2O2 (160 μM) for 24 h, while the control group received an equal volume of DMEM. Finally, cell viability was measured following the procedures in Section 2.8.

A further data set relates to ROS in HepG2 cells. Nature of the data set: ROS levels, DCFH-DA fluorescence. The settings on record: 5–10 μg/mL pretreatment 6 h, then H2O2 160 μM 24 h; p < 0.01. Here is the method:
HepG2 cells were treated as in Section 2.10. After that, the supernatant was discarded, and cells were gently washed twice with PBS. Subsequently, the cells were incubated with DMEM containing 10 μM DCFH2-DA at 37 °C for 20 min. After the incubation, the cells were carefully washed twice with PBS, and then 1 mL of DMEM was added, after which the cells were observed under a fluorescence microscope.
The contents of ROS were indicated by DCF fluorescence and quantified using excitation and emission filters of 488 and 525 nm, respectively. The ROS levels were expressed as a percentage of the blank control values.

For a further data set, the system named is CAT. Put plainly: CAT activity in HepG2 cells. The settings on record: 5–10 μg/mL pretreatment 6 h, then H2O2 160 μM 24 h; p < 0.01. The procedure:
(§1) First, HepG2 cells (1 × 10^5 cells/mL) in a volume of 2 mL were seeded in a 6-well culture plate and incubated at 37 °C for 24 h. Experimental grouping and treatments were the same as in Section 2.9. Next, cells were collected, and cell lysis was performed using RIPA cell lysis solution. The protein concentration in cell lysates was determined by the BCA protein assay kit. SOD (Item No. A001-3-2) and CAT (Item No. A007-1-1) activity assays were carried out according to the instructions provided with the corresponding assay kits.

For a further data set, the system named is SOD. Put plainly: SOD activity in HepG2 cells. The settings on record: 5–10 μg/mL pretreatment 6 h, then H2O2 160 μM 24 h; p < 0.01. Here is the method:
as §1

Data set [3] has as its system HepG2 cells. Nature of the data set: Hoechst 33258 staining, chromatin damage. The settings on record: 5–10 μg/mL pretreatment 6 h, then H2O2 160 μM 24 h; fluorescence microscopy. The procedure:
(§2) HepG2 cells were treated as in Section 2.10. Hoechst 33258 (Item No. C0021) and JC-1 (Item No. M8650) staining was performed according to the instructions provided in the staining kit.
Hoechst 33258 staining was directly observed using a fluorescence microscope.

Data set [4] deals with HepG2 cells. Put plainly: JC-1 staining, mitochondrial membrane potential. The settings on record: 5–10 μg/mL pretreatment 6 h, then H2O2 160 μM 24 h; for JC-1 green fluorescence: fluorescence microscopy; for JC-1 red/green fluorescence ratio: microplate reader, versus H2O2 damage group. The procedure:
as §2
After JC-1 staining, the samples were examined under a fluorescence microscope. […] The red/green fluorescence ratio can be considered a direct indicator of the state of mitochondrial polarization.

Data set [5] concerns HepG2 cells. Nature of the data set: Apoptosis, Annexin V-FITC/PI flow cytometry. The settings on record: 5–10 μg/mL pretreatment 6 h, then H2O2 160 μM 24 h. The procedure: HepG2 cells were treated as in Section 2.10. After that, cells were collected, rinsed twice with PBS, and then resuspended in Apoptosis Detection Staining solution (containing 2 μL of Annexin V-FITC dye, 5 μL of PI dye, and 100 μL of Binding buffer).
After 15 min of dark incubation at room temperature, cells were analyzed for their apoptotic status (Ex = 488 nm, FL1 EM = 515 nm, FL2 EM = 560 nm) using the BD Fortessa flow cytometer (Becton Dickinson, Franklin Lakes, NJ, USA), and the data were analyzed with Flowjo software 10.0.

`OO` [Peptide H2O2, hydrogen peroxide] came in with a Cell survival rate in the data set on HepG2 cells [1] of approximately 50%.
For the compound EGDAGAQGPPGPAGPAGER [Peptide P6], in the data set with HepG2 cells [2], the “Mitigating effect on H2O2-induced oxidative damage (cell survival rate)” value is recorded as “significantly better than those of the other peptides”. Besides, in the data set on ROS in HepG2 cells, the “Cellular DCF fluorescence intensity (ROS)” value was “significantly reduced”. Also, the CAT activity result in the data set on CAT is listed as “significant increase”. In the data set on SOD, the SOD activity entry is recorded as “significant increase”. Further, in the data set on HepG2 cells [3], the “Hoechst 33258 nuclear fluorescence (chromatin damage)” value is “reduced blue fluorescence and fewer bright spots”. Besides, in the data set on HepG2 cells [4], the JC-1 green fluorescence entry is listed as “reduced green fluorescence” and the “JC-1 red/green fluorescence ratio” value was “effectively alleviated”. Besides, the Apoptosis rate entry in the data set with HepG2 cells [5] is recorded as “significantly reduced the apoptosis rate”.
RPGPSPGVGAPGK [Peptide P7]: in the data set on HepG2 cells [2], the “Mitigating effect on H2O2-induced oxidative damage (cell survival rate)” value is reported as “significantly better than those of the other peptides”. Besides, in the data set with ROS in HepG2 cells, the “Cellular DCF fluorescence intensity (ROS)” value is on record as “significantly reduced”. In the data set on CAT, the CAT activity result is given as “significant increase”. In the data set on SOD, the SOD activity result was “significant increase”. Besides, the “Hoechst 33258 nuclear fluorescence (chromatin damage)” value in the data set with HepG2 cells [3] is “reduced blue fluorescence and fewer bright spots”. For the same compound, in the data set on HepG2 cells [4], the JC-1 green fluorescence result was “reduced green fluorescence” and the “JC-1 red/green fluorescence ratio” value was “effectively alleviated”. For the same compound, in the data set with HepG2 cells [5], the Apoptosis rate entry is “significantly reduced the apoptosis rate”.
